Assay results reported in US20260167622A1, “PAN-KRAS DEGRADING AGENT, AND PREPARATION METHOD THEREFOR AND USE THEREOF” (LEADINGTAC PHARMACEUTICAL (SHAOXING) CO., LTD., priority 2022, published 2026).

Experiments:
Format in all cases: cell-based
[1] = system: KRAS WT human gastric cancer cell MKN1; assay: 3D cell proliferation inhibition assay, MKN1; conditions: MKN-1, 168 h, 3D culture, 7 days, CTG
From the text: (§1) Test Example 6: 3D Cell Proliferation Inhibition Assay
(§2) The inhibitory effects of the compounds on 3D cell proliferation were investigated on KRAS G12C mutant human non-small cell lung cancer cell NCI-H358, KRAS G12D mutant human lung cancer cell A427, KRAS G12D mutant human gastric cancer cell AGS, KRAS G12D mutant human metastatic pancreatic cancer cell AsPc-1, KRAS G12V mutant human lung squamous carcinoma cell SW900, KRAS G12V mutant human colorectal cancer cell SW620, KRAS G13D mutant human colorectal cancer epithelial cell DLD-1, and KRAS WT human gastric cancer cell MKN1. The specific procedures were as follows:
(§3) 10 μL of each compound solution diluted in a gradient was added to corresponding wells of a 96-well low-adsorption microplate (PerkinElmer), so that the final concentrations of the test compounds in the reaction system were in a range of 10000-0.026 nM. The final concentration of DMSO was 0.2%. Then 90 µL of cells were correspondingly seeded into each well to achieve a cell density of 5×10^2 cells/well (the cell density of SW900 was 5×10^3 cells/well, and the cell density of MKN1 was 1×10^3 cells/well). In addition to test wells for the test compounds, both a DMSO control well and a medium control well were set, with the DMSO control well containing DMSO and cells and the medium well containing only a medium. After the sample loading, the 96-well low-adsorption microplate was incubated in an incubator at 37° C. with […] for 7 days. After 7 days, the microplate was taken out, and 100 μL of CTG reagent (Promega) was added to each well. The plate was incubated at room temperature for 60 m and read on a microplate reader EnVision by the chemiluminescence program. The inhibition rates of the compounds at each concentration were calculated using the formula for the percentage inhibition of cell proliferation: inhibition rate 00=(mean value of DMSO control group−single concentration reading value of compound)/(mean value of DMSO control group−mean value of medium control group)×100. Then non-linear curve fillings for logarithmic concentration-inhibition rate were performed by GraphPad Prism 8, and the IC50 values of the compounds were obtained (Table 6).

[2] = system: KRAS G12V mutant human lung squamous carcinoma cell SW900; assay: 3D cell proliferation inhibition assay, SW900; conditions: SW900, 168 h, 3D culture, 7 days, CTG
From the text: as §1, §2, §3

[3] = system: KRAS G12D mutant human metastatic pancreatic cancer cell AsPc-1; assay: 3D cell proliferation inhibition assay, AsPc-1; conditions: ASPC1, 168 h, 3D culture, 7 days, CTG
From the text: as §1, §2, §3

[4] = system: KRAS G12C mutant human non-small cell lung cancer cell NCI-H358; assay: 3D cell proliferation inhibition assay, NCI-H358; conditions: NCI-H358, 168 h, 3D culture, 7 days, CTG
From the text: as §1, §2, §3

[5] = system: KRAS G12V mutant human colorectal cancer cell SW620; assay: 3D cell proliferation inhibition assay, SW620; conditions: SW-620, 168 h, 3D culture, 7 days, CTG
From the text: as §1, §2, §3

[6] = molecular target: T1, KRAS G12V protein in SW900 cells (Homo sapiens, UniProt P01116, G12V); assay: KRAS degradation assay (Western Blot) in SW900 cells; conditions: 24 h
T1 construct: endogenous in cells; host or cells: SW900
T1 sequence (P01116 1-188 isoform P01116-2 G12V): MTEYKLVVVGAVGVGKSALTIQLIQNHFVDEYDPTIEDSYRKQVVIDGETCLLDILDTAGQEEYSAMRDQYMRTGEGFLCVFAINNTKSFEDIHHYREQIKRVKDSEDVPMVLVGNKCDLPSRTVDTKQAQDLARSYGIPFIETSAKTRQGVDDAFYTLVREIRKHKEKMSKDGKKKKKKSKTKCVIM
From the text: (§4) Test Example 5: KRAS G12C, KRAS G12D, KRAS G12V, KRAS G13D, and KRAS WT (Expanded) Degradation Assays
(§5) The degradation effect of the compounds on KRAS was investigated on KRAS G12C mutant human non-small cell lung cancer cell NCI-H358, KRAS G12D mutant human metastatic pancreatic cancer cell AsPc-1, KRAS G12D mutant human lung cancer cell A427, KRAS G12V mutant human colorectal cancer cell SW620, KRAS G12V mutant human lung cancer cell SW900, KRAS G13D mutant human colorectal cancer epithelial cell DLD-1, and KRAS WT human gastric cancer cell MKN-1. The specific procedures were as follows: 0.95 mL of cells were seeded into each well of a 24-well cell culture plate to achieve a cell density of 5×10^5 cells/well; and the cell plate was incubated in an incubator at 37° C. with 5% CO2 overnight. Then 50 μL of the compound solution after dilution was added to each of the wells with the corresponding cells, so that the final concentration of the compound was in a range of 0.03-3000 nM. The final concentration of DMSO was 0.25%. After the compounds were added, the cell plate was incubated in an incubator at 37° C. with 5% CO2 for 24 h. The culture medium in the 24-well cell culture plate was then removed, and the plate was washed twice with 1×PBS (KeyGEN). 120 μL of RIPA (strong) lysis buffer (Beyotime) (supplemented with 1 mM phenylmethylsulfonyl fluoride, a protease inhibitor mixture (Beyotime), and a protease phosphatase inhibitor mixture (Beyotime)) was added to lyse adherent SW900 cells at the bottom of the cell culture plate. After the plate was left to stand on ice for 30 min, the protein lysate in each well was transferred to a 1.5 mL centrifuge tube and centrifuged at 15000 g for 20 min at 4° C. The cell lysate supernatants after centrifugation were cryopreserved in a refrigerator at −80° C. for later use.
(§6) After the samples of the cell lysate supernatants that had been prepared were thawed from the refrigerator at −80° C., the total protein concentrations of the cell lysates were determined using a BCA protein quantification kit (Tiangen). The total protein concentrations of the samples were then adjusted to 0.5 μg/μL with PBS and 5×SDS-PAGE protein loading buffer (Beyotime), and the samples were incubated in a water bath at 100° C. for 15 min. The samples were then incubated in an ice bath for 5 min and centrifuged at 14000 g for 1 min at 4° C., and the supernatants were mixed well as loading samples for the Western Blot assay. The samples were loaded into wells of a 10% precast gel (KeyGEN) with a loading volume of 10 μL (total protein: 5 μg), a sufficient Tris-MOPS-SDS running buffer (Adamas) was added, and then electrophoresis was performed at a constant voltage of 120 V for 55 min. After the electrophoresis, the proteins on the gel were transferred to PVDF membranes at a constant current of 250 mA for 55 min. After the membrane transfer, the PVDF membranes were incubated in 1× Quick Block blocking buffer (Beyotime)at room temperature for 30 min. After the blocking, the PVDF membranes were separately incubated at 4° C. overnight with the KRAS antibody (Abcam) diluted in a ratio of 1:1000 and the β-actin antibody (Abcam) diluted in a ratio of 1:2000 in 5% BSA as the diluent, and then washed with 1×TBST buffer (2.4 g of Tris, 8.8 g of NaCl, 1.5 mL of Tween 20, with pH adjusted to 7.4, with the volume brought to 1 L) 3 times for 10 min/time. The membranes were incubated with a secondary antibody (Abcam) diluted in 5% BSA at room temperature for 2 h, and then washed with 1×TBST buffer 3 times for 10 min/time. Finally, the membranes were incubated with Clarity Western ECL Substrate (BIO-RAD) for 5 min for luminescence and color development, and a ChemiScope 6200 Touch chemiluminescence imaging system (Clinx) was used for color development and protein mapping. Gray value analysis of the protein maps was performed using the chemiluminescence analysis software (Clinx). […]

[7] = system: KRAS G13D mutant human colorectal cancer epithelial cell DLD-1; assay: 3D cell proliferation inhibition assay, DLD-1; conditions: DLD-1, 168 h, 3D culture, 7 days, CTG
From the text: as §1, §2, §3

[8] = molecular target: T2, KRAS G13D protein in DLD-1 cells (Homo sapiens, UniProt P01116, G13D); assay: KRAS degradation assay (Western Blot) in DLD-1 cells; conditions: 24 h
T2 construct: endogenous in cells; host or cells: DLD-1
T2 sequence (P01116 1-188 isoform P01116-2 G13D): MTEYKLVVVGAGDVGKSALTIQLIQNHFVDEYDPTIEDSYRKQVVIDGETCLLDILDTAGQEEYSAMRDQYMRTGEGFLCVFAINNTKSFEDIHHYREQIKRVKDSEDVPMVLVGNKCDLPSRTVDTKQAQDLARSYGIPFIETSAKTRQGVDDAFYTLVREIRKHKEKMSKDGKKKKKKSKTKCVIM
From the text: as §4, §5, §6

[9] = molecular target: T3, KRAS G12V protein in SW620 cells (Homo sapiens, UniProt P01116, G12V); assay: KRAS degradation assay (Western Blot) in SW620 cells
T3 construct: endogenous in cells; host or cells: SW620
T3 sequence (P01116 1-188 isoform P01116-2 G12V): as the sequence (P01116 1-188 isoform P01116-2 G12V) above
From the text: as §4, §5, §6

[10] = system: KRAS G12D mutant human gastric cancer cell AGS; assay: 3D cell proliferation inhibition assay, AGS; conditions: 168 h, 3D culture, 7 days, CTG
From the text: as §1, §2, §3

[11] = system: KRAS G12D mutant human lung cancer cell A427; assay: 3D cell proliferation inhibition assay, A427; conditions: A-427, 168 h, 3D culture, 7 days, CTG
From the text: as §1, §2, §3

IC50 [1] [nM]	IC50 [2] [nM]	IC50 [3] [nM]	IC50 [4] [nM]	IC50 [5] [nM]	DC50 [6] [nM]	Dmax [6] [%]	IC50 [7] [nM]	DC50 [8] [nM]	Dmax [8] [%]	DC50 ([9]; 24 h) [nM]	Dmax ([9]; SW-620, 24 h) [%]	IC50 [10] [nM]	IC50 [11] [nM]	SMILES
≤ 50	≤ 50	≤ 50	≤ 50	3.47	≤ 50	80 to 100	–	–	–	–	–	–	–	C#Cc1cccc2cc(O)cc(-c3ncc4c(N5CCC[C@@](C)(O)C5)nc(OCC5(CN6CCN(CC7CCC8(CC7)CCN(C(=O)c7ccc(C)c(N9CCC(=O)NC9=O)c7)CC8)CC6)CC5)nc4c3F)c12 [Example 27, (R)-1-(5-(9-((4-((1-(((7-(8-ethynyl-3-hydroxynaphthalen-1-yl)-8-fluoro-4-(3-hydroxy-3-methylpiperidin-1l-yl)pyrido[4,3-d]pyrimidin-2-yl)oxy)methyl)cyclopropyl)methyl)piperazin-1-yl)methyl)-3-azaspiro[5.5]undecane-3-carbonyl)-2-methylphenyl)dihydropyrimidine-2,4(1H,3H)-dione]
9.19	–	24	5.58	2.93	–	–	5.68	7.28	100	6.73	98.9	–	–	C#Cc1c(F)ccc2cc(O)cc(-c3ncc4c(N5CCC[C@@](C)(O)C5)nc(OC[C@H](C)CN5CCN(CC6CCC7(CC6)CCN(C(=O)c6ccc(CC)c(N8CCC(=O)NC8=O)c6)CC7)CC5)nc4c3F)c12 [Example 133, 1-(2-ethyl-5-(9-((4-((R)-3-((7-(8-ethynyl-7-fluoro-3-hydroxynaphthalen-1-yl)-8-fluoro-4-((R)-3-hydroxy-3-methylpiperidin-1-yl)pyrido[4,3-d]pyrimidin-2-yl)oxy)-2-methylpropyl)piperazin-1-yl)methyl)-3-azaspiro[5.5]undecane-3-carbonyl)phenyl)dihydropyrimidine-2,4(1H,3H)-dione]
5.55	46.8	64.2	23.6	12.3	≤ 50	80 to 100	63.5	–	–	–	–	69.5	–	CCc1cccc2cc(O)cc(-c3ccc4c(N5CCC[C@@](C)(O)C5)nc(OCC5(CN6CCN(CC7CCC8(CC7)CCN(C(=O)c7ccc(OC)c(N9CCC(=O)NC9=O)c7)CC8)CC6)CC5)nc4c3F)c12 [Example 23, (R)-1-(5-(9-((4-((1-(((7-(8-ethyl-3-hydroxynaphthalen-1-yl)-8-fluoro-4-(3-hydroxy-3-methylpiperidin-1-yl)quinazolin-2-yl)oxy)methyl)cyclopropyl)methyl)piperazin-1-yl)methyl)-3-azaspiro[5.5]undecane-3-carbonyl)-2-methoxyphenyl)dihydropyrimidine-2,4(1H,3H)-dione]
≤ 50	≤ 50	50 to 100	–	9.08	≤ 50	80 to 100	–	–	–	–	–	–	–	C#Cc1c(F)ccc2cc(O)cc(-c3ccc4c(N5CCC[C@@](C)(O)C5)nc(OCC5(CN6CCN(CC7CCC8(CC7)CCN(C(=O)c7ccc(C)c(N9CCC(=O)NC9=O)c7)CC8)CC6)CC5)nc4c3F)c12 [Example 41, (R)-1-(5-(9-((4-((1-(((7-(8-ethynyl-7-fluoro-3-hydroxynaphthalen-1-yl)-8-fluoro-4-(3-hydroxy-3-methylpiperidin-1-yl)quinazolin-2-yl)oxy)methyl)cyclopropyl)methyl)piperazin-1-yl)methyl)-3-azaspiro[5.5]undecane-3-carbonyl)-2-methylphenyl)dihydropyrimidine-2,4(1H,3H)-dione]
50 to 100	≤ 50	–	500 to 1000	–	–	–	–	–	–	–	–	500 to 1000	500 to 1000	C#Cc1c(F)ccc2cc(O)cc(-c3ncc4c(N5CCC[C@@](C)(O)C5)nc(OCC5(CN6CCN(CC7CCC8(CC7)CCN(C(=O)c7ccc9c(c7)C(=O)N(C7CCC(=O)NC7=O)C9=O)CC8)CC6)CC5)nc4c3F)c12 (stereo partly drawn) [Example 13, 2-(2,6-dioxopiperidin-3-yl)-5-(9-((4-((1-(((7-(8-ethynyl-7-fluoro-3-hydroxynaphthalen-1-yl)-8-fluoro-4-((R)-3-hydroxy-3-methylpiperidin-1-yl)pyrido[4,3-d]pyrimidin-2-yl)oxy)methyl)cyclopropyl)methyl)piperazin-1-yl)methyl)-3-azaspiro[5.5]undecane-3-carbonyl)isoindoline-1,3-dione]
